Measured values as given in publication PMC8569887 (Journal of medicinal chemistry, 2021).
“Also recorded” adds a separate entry of the source.

What was measured:
[1] = tested on: primary rat cortical neurons (axonal AcTub staining); format: cell-based; details: 1 μM compound; for AcTub staining and axonal processes upon co-addition with okadaic acid: +OA (15 nM, 8 hours); for axonal acetyl-tubulin staining in the absence of OA: relative to vehicle
HeLa cells = assay: Cytotoxicity in rapidly dividing HeLa cells; format: cell-based; details: values in Supporting Information
QBI293 cells = assay: Cytotoxicity in rapidly dividing QBI293 cells; format: cell-based; details: values in Supporting Information
[2] = tested on: primary mouse cortical neurons (AcTub levels); assay: AcTub ELISA in primary mouse cortical neurons treated with okadaic acid; format: cell-based; details: 10 μM (higher concentration)
[3] = Brain and plasma pharmacokinetics after i.p. dosing; format: in vivo; details: CD1 mice

SMILES	AcTub staining and axonal processes upon co-addition with okadaic acid [1]	axonal acetyl-tubulin staining in the absence of OA [1]	cytotoxicity IC50, side-by-side comparison of enantiomers (HeLa cells)	cytotoxicity IC50, side-by-side comparison of enantiomers (QBI293 cells)	AcTub levels in neuron homogenates in the presence of OA [2]	metabolic stability from plasma PK compared with lead compound 3 ([3]; i.p. dosing, compared to 3)	clearance compared to 3 ([3]; i.p. injection)	plasma half-life compared to 3 ([3]; i.p. injection)
CC(C)[C@@H](C)Nc1c(-c2c(F)cc(F)cc2F)c(Cl)nc2ncnn12 [Compound 3, reference compound]	normalization of AcTub staining and axonal processes	increased axonal acetyl-tubulin staining						
CC(C)[C@@H](Nc1c(-c2c(F)cc(F)cc2F)c(Cl)nc2ncnn12)C(F)(F)F [Compound 46, (R)-5-Chloro-N-(1,1,1-trifluoro-3-methylbutan-2-yl)-6-(2,4,6-trifluorophenyl)-[1,2,4]triazolo[1,5-a]pyrimidin-7-amine]			did not reveal significant differences in IC50 values	did not reveal significant differences in IC50 values				
CC(C)[C@H](Nc1c(-c2c(F)cc(F)cc2F)c(Cl)nc2ncnn12)C(F)(F)F [Compound 47, (S)-5-Chloro-N-(1,1,1-trifluoro-3-methylbutan-2-yl)-6-(2,4,6-trifluorophenyl)-[1,2,4]triazolo[1,5-a]pyrimidin-7-amine]			did not reveal significant differences in IC50 values	did not reveal significant differences in IC50 values				
C[C@@H](Nc1c(-c2c(F)cc(C#N)cc2F)c(Cl)nc2ncnn12)C(C)(C)C [Compound 69, (R)-4-(5-Chloro-7-((3,3-dimethylbutan-2-yl)amino)-[1,2,4]triazolo[1,5-a]pyrimidin-6-yl)-3,5-difluorobenzonitrile]	protects the MT network from okadaic acid-induced collapse; also recorded: normalization of AcTub staining and axonal processes	increased axonal acetyl-tubulin staining			AcTub levels comparable to those in neurons without OA treatment	greater metabolic stability	reduced clearance	increased plasma half-life
